Data reported in patent publication US4673562A, “Bisamide bisthiol compounds useful for making technetium radiodiagnostic renal agents” (The Children's Medical Center Corporation, priority 1983, dated 1987).
Where “and” joins values, the source holds several entries; their conditions need not be identical. Equal entries are not always repeated. One block for each compound: values may come before it.

How the values were obtained:
[1] = cited from earlier work
[2] = Solubility of bisthiol compound; assay type: physicochemical
[3] = in vivo; cited from earlier work
[4] = Gamma camera: % total dose in bladder, 99mTc complexes coinjected with 131I-OIH into normal dogs (Tables I, III); assay type: in vivo, dog; parameters: Comparison of % total dose in bladder versus 131I-OIH, column headed by drawing 19 (± s.d.): unit not given here; conditions: for % Total Dose In Bladder (gamma camera data): single animals
Experimental: The two fractions collected from the products of synthesis in each case were denoted (XVIA), (XVIB), (XXXIA), and (XXXIB), respectively.
Images were recorded at 1, 5, 10, 15, 20, 25, 30 and 35 minutes after administration. The initial image at one minute was used to collect 750,000 counts. All subsequent images were exposed for the same length of time as this first image, and the number of counts noted. […] In this way, the counts collected in the camera images cound be related to absolute activity levels (mCi or μCi). The animals were then observed until the urine samples were free of ^99m Tc.
The values represent the calculated % total dose in the camera region of interest set over the bladder.

[5] = Biodistribution in Swiss Webster albino male mice, coinjected with 131I-OIH (Tables IV, V); assay type: in vivo, mouse
Experimental: The diastereomers (XVIA) and (XVIB) were synthesized and then isolated by high pressure liquid chromatography as described previously, and their biodistributions obtained in groups in six Swiss Webster albino male mice. […] The mice were then placed in metabolic cages to collect urine. At 10 and 120 minutes after injection, the penis was ligated, the mice killed with chloroform vapor, and the organs disected.

[6] = Average % total dose in urine samples of dogs (Table II); assay type: in vivo, dog; conditions: mean
Text: The diastereomeric ^99m Tc complexes formed by reduction of pertechnetate in the presence of (2-benzoylthioacetyl)- glycyl-(S-benzoyl)-cysteine methyl ester (compound XVI) and N-2-(benzoylthio)ethyl)-N'-1-carbomethoxy-(2-benzoylthio)ethyl]oxamide (compound XXXI) were synthesized and separated by high pressure liquid chromatography. The two fractions collected from the products of synthesis in each case were denoted (XVIA), (XVIB), (XXXIA), and (XXXIB), respectively.
Samples of each fraction were mixed with appropriate amounts of ^131 I-OIH and coinjected into normal dogs placed under a gamma camera. Images were recorded at 1, 5, 10, 15, 20, 25, 30 and 35 minutes after administration. The initial image at one minute was used to collect 750,000 counts. All subsequent images were exposed for the same length of time as this first image, and the number of counts noted. Immediately after each count, a urine sample was drawn from the bladder via a indwelling catheter, and the ^99m Tc ANd ^131 I activity determined using an ionization chamber. In this way, the counts collected in the camera images cound be related to absolute activity levels (mCi or μCi). The animals were then observed until the urine samples were free of ^99m Tc.
In Table II can be seen the average % total dose valus observed in the urine samples collected at each time point. Also quoted in parentheses are the standard deviation and standard error of the mean.

[7] = Table IV, 10 min, XVI A and 131I-OIH coinjected
[8] = Table IV, 120 min, XVI A and 131I-OIH coinjected
[9] = Table V, 10 min, XVI B and 131I-OIH coinjected
[10] = Table V, 120 min, XVI B and 131I-OIH coinjected

SMILES: Nc1ccc(C(=O)NCC(=O)O)cc1 [PAH, Paraaminohippuric acid]
- elimination by glomerular filtration ([1]; kidneys): 20%
- elimination by tubular secretion ([1]; kidneys): 80%
- renal plasma flow as measured by PAH ([1]; normal adult): about 575 ml/minute
- extraction by the normal kidney ([1]; normal kidney): 90%

SMILES: O=C(NCCS)C(=O)NCCS [XXXII, N, N'-bis(2-mercaptoethyl)oxamide]
- solubility [2]: soluble only in DMSO, trifluoroacetic acid and aqueous alkali

SMILES: O=C1C[S][Tc-]23(=[O])[S]CC(=O)[N]2CC[N]13 [[TcO(ema)]-]
- excretion route and metabolic state [3]: excreted into both the urine and bile in a chemically unchanged form

SMILES: O=C(O)Cn1cc(I)c(=O)c(I)c1 [iodo-pyracet]
- removal from circulation by the liver ([1]; in vivo): partial removal from the circulation by the liver

- Blood, % total dose per organ ± s.d. [5, 7]: 2.80 ± 0.24 % total dose per organ
- Intestine, % total dose per organ ± s.d. [5, 7]: 1.15 ± 0.23 % total dose per organ
- Kidneys, % total dose per organ ± s.d. [5, 7]: 2.18 ± 0.29 % total dose per organ
- Liver, % total dose per organ ± s.d. [5, 7]: 1.36 ± 0.24 % total dose per organ
- Stomach, % total dose per organ ± s.d. [5, 7]: 0.36 ± 0.10 % total dose per organ
- Urine, % total dose ± s.d. [5, 7]: 64.80 ± 7.31 % total dose per organ
- Blood, % total dose per organ ± s.d. [5, 8]: 0.22 ± 0.04 % total dose per organ
- Intestine, % total dose per organ ± s.d. [5, 8]: 0.45 ± 0.19 % total dose per organ
- Kidneys, % total dose per organ ± s.d. [5, 8]: 0.01 ± 0.06 % total dose per organ
- Liver, % total dose per organ ± s.d. [5, 8]: 0.14 ± 0.03 % total dose per organ
- Stomach, % total dose per organ ± s.d. [5, 8]: 0.60 ± 0.19 % total dose per organ
- Urine, % total dose ± s.d. [5, 8]: 89.86 ± 3.03 % total dose per organ
- Blood, % total dose per organ ± s.d. [5, 9]: 2.11 ± 0.62 % total dose per organ
- Intestine, % total dose per organ ± s.d. [5, 9]: 0.91 ± 0.27 % total dose per organ
- Kidneys, % total dose per organ ± s.d. [5, 9]: 3.09 ± 3.36 % total dose per organ
- Liver, % total dose per organ ± s.d. [5, 9]: 1.20 ± 0.41 % total dose per organ
- Stomach, % total dose per organ ± s.d. [5, 9]: 0.42 ± 0.63 % total dose per organ
- Urine, % total dose ± s.d. [5, 9]: 78.86 ± 5.1 % total dose per organ
- Blood, % total dose per organ ± s.d. [5, 10]: 0.19 ± 0.08 % total dose per organ
- Intestine, % total dose per organ ± s.d. [5, 10]: 0.24 ± 0.04 % total dose per organ
- Kidneys, % total dose per organ ± s.d. [5, 10]: 0.05 ± 0.04 % total dose per organ
- Liver, % total dose per organ ± s.d. [5, 10]: 0.10 ± 0.04 % total dose per organ
- Stomach, % total dose per organ ± s.d. [5, 10]: 0.71 ± 0.27 % total dose per organ
- Urine, % total dose ± s.d. [5, 10]: 93.25 ± 0.89 % total dose per organ
SMILES: O=C(O)CNC(=O)c1ccccc1[131I] [Compound 131I-OIH, ^131 I-ortho-iodohippurate, reference compound]
- % total dose in bladder at 35 minutes, Average 131I (± s.d) ([4]; Table III, 35 min, average of dogs, coinjected with the 99mTc complex of the line): 73.60 % total dose and 72.02 % total dose and 76.69 % total dose and 80.87 % total dose
- % total dose in bladder at 35 minutes, 131I ([4]; Table III, 35 min, single dogs, coinjected with the 99mTc complex of the line): 73.14 % total dose and 77.31 % total dose and 70.39 % total dose and 61.75 % total dose and 77.21 % total dose and 77.10 % total dose and 74.35 % total dose and 82.53 % total dose and 73.20 % total dose and 87.52 % total dose and 75.71 % total dose and 79.39 % total dose
- time to maximum uptake in normal kidneys ([1]; bolus injection): within the first five minutes
- clearance relative to PAH ([1]; in vivo): lower clearance than PAH
- injected dose found in the urine ([1]; normally hydrated patient, at thirty minutes, 30 min): approximately 70%
- clearance from the renal parenchyma and collecting system ([1]; normally hydrated patient, bolus injection): within thirty minutes

SMILES: O=C([O-])CN(CCN(CC(=O)[O-])CC(=O)[O-])CCN(CC(=O)[O-])CC(=O)[O-].[99Tc+4] [Compound 99mTc-DTPA]
- route of excretion ([1]; in vivo): excreted exclusively by glomerular filtration

SMILES: [O]=[Tc](=[O])(=[O])[O-] [pertechnetate]
- absolute concentration in the renal parenchyma ([1]; in vivo): low
- filtered activity reabsorbed by the renal tubules ([1]; in vivo): about 86%
- urinary excretion ([1]; in vivo): relatively slow

SMILES: O=C(O)C1C[S][Tc-]23(=[O])[S]CC(=O)[N]2CC(=O)[N]13 (single isomer, unassigned) [XVIA]
- % Total Dose In Bladder (gamma camera data) ([4]; 5 min post injection, normal dogs, 5 min): 13.13 % total dose and 9.63 % total dose and 3.25 % total dose
- % Total Dose In Bladder (gamma camera data) ([4]; 10 min post injection, normal dogs, 10 min): 38.08 % total dose and 34.15 % total dose and 33.73 % total dose
- % Total Dose In Bladder (gamma camera data) ([4]; 15 min post injection, normal dogs, 15 min): 49.99 % total dose and 47.44 % total dose and 46.89 % total dose
- % Total Dose In Bladder (gamma camera data) ([4]; 20 min post injection, normal dogs, 20 min): 57.29 % total dose and 59.01 % total dose and 56.40 % total dose
- % Total Dose In Bladder (gamma camera data) ([4]; 25 min post injection, normal dogs, 25 min): 63.73 % total dose and 64.39 % total dose and 62.63 % total dose
- % Total Dose In Bladder (gamma camera data) ([4]; 30 min post injection, normal dogs, 30 min): 63.67 % total dose and 66.95 % total dose and 58.77 % total dose
- % Total Dose In Bladder (gamma camera data) ([4]; 35 min post injection, normal dogs, 35 min): 66.64 % total dose and 72.79 % total dose and 63.08 % total dose
- % total dose in bladder at 35 minutes, Average 99mTc (± s.d) ([4]; Table III, 35 min, average of dogs): 67.50 % total dose
- Comparison of % total dose in bladder versus 131I-OIH, column headed by drawing 19 (± s.d.) ([4]; Table III, 35 min, dogs): 91.71
- pharmacokinetic behavior of the diastereomers ([4]; normal dogs): identical
- rate of excretion in the urine ([4]; normal dogs, versus 131I-OIH): comparable rates of excretion to each other and to OIH
- Average % Total Dose in Urine Samples ([6]; 5 min post injection, 5 min): 8.67 % total dose
- Average % Total Dose in Urine Samples ([6]; 10 min post injection, 10 min): 35.32 % total dose
- Average % Total Dose in Urine Samples ([6]; 15 min post injection, 15 min): 48.11 % total dose
- Average % Total Dose in Urine Samples ([6]; 20 min post injection, 20 min): 57.57 % total dose
- Average % Total Dose in Urine Samples ([6]; 25 min post injection, 25 min): 63.25 % total dose
- Average % Total Dose in Urine Samples ([6]; 30 min post injection, 30 min): 63.20 % total dose
- Average % Total Dose in Urine Samples ([6]; 35 min post injection, 35 min): 67.50 % total dose
- Blood, % total dose per organ ± s.d. [5, 7]: 2.24 ± 0.33 % total dose per organ
- Intestine, % total dose per organ ± s.d. [5, 7]: 1.07 ± 0.20 % total dose per organ
- Kidneys, % total dose per organ ± s.d. [5, 7]: 3.19 ± 0.41 % total dose per organ
- Liver, % total dose per organ ± s.d. [5, 7]: 1.39 ± 0.31 % total dose per organ
- Stomach, % total dose per organ ± s.d. [5, 7]: 0.10 ± 0.01 % total dose per organ
- Urine, % total dose ± s.d. [5, 7]: 65.01 ± 9.7 % total dose per organ
- Blood, % total dose per organ ± s.d. [5, 8]: 0.05 ± 0.01 % total dose per organ
- Intestine, % total dose per organ ± s.d. [5, 8]: 0.99 ± 0.59 % total dose per organ
- Kidneys, % total dose per organ ± s.d. [5, 8]: 0.11 ± 0.04 % total dose per organ
- Liver, % total dose per organ ± s.d. [5, 8]: 0.19 ± 0.03 % total dose per organ
- Stomach, % total dose per organ ± s.d. [5, 8]: 0.21 ± 0.47 % total dose per organ
- Urine, % total dose ± s.d. [5, 8]: 89.87 ± 2.70 % total dose per organ
- clearance into the urine ([5]; mice, versus 131I-OIH): cleared rapidly into the urine at comparable rates to each other and to the radiopharmaceutical ^131 I-OIH
